According to ChEMBL document CHEMBL1156337, “Synthesis and evaluation of novel benzothiazole derivatives based on the bithiophene structure as potential radiotracers for beta-amyloid plaques in Alzheimer's disease” (Bioorg Med Chem, 2010):

What was measured:
[1] = Binding affinity to amyloid beta (1 to 42) aggregates after 2 hrs by saturation binding method
[2] = Binding affinity to amyloid beta (1 to 40) aggregates after 2 hrs by saturation binding method
[3] = Binding affinity to amyloid beta aggregates
[4] = Displacement of [125I]TZDM from amyloid beta (1 to 40) aggregates after 2 hrs
[5] = Displacement of [125I]TZDM from amyloid beta (1 to 42) aggregates after 2 hrs
Heart [6] = test: Biodistribution in heart of Kunming mouse at 1 uCi, iv after 2 mins by gamma counting; type: ADME, organism-based; conditions: in vivo
Brain [7] = test: Biodistribution in brain of Kunming mouse at 1 uCi, iv after 2 mins by gamma counting; type: ADME, organism-based; conditions: in vivo
[8] = Partition coefficient, log D in n-octanol/0.05 M phosphate buffer at pH 7.4; type: physicochemical
Muscle tissue [9] = test: Biodistribution in muscle of Kunming mouse at 1 uCi, iv after 240 mins by gamma counting; type: ADME, organism-based; conditions: in vivo, 4 h
Spleen [10] = test: Biodistribution in spleen of Kunming mouse at 1 uCi, iv after 120 mins by gamma counting; type: ADME, organism-based; conditions: in vivo, 2 h
Muscle tissue [11] = test: Biodistribution in muscle of Kunming mouse at 1 uCi, iv after 60 mins by gamma counting; type: ADME, organism-based; conditions: in vivo, 1 h
Lung [12] = test: Biodistribution in lung of Kunming mouse at 1 uCi, iv after 240 mins by gamma counting; type: ADME, organism-based; conditions: in vivo, 4 h
Stomach [13] = test: Biodistribution in stomach of Kunming mouse at 1 uCi, iv after 120 mins by gamma counting measured per organ; type: ADME, organism-based; conditions: in vivo, 2 h
Kidney [14] = test: Biodistribution in kidney of Kunming mouse at 1 uCi, iv after 240 mins by gamma counting; type: ADME, organism-based; conditions: in vivo, 4 h
Blood [15] = test: Biodistribution in blood of Kunming mouse at 1 uCi, iv after 2 mins by gamma counting; type: ADME, organism-based; conditions: in vivo
Blood [16] = test: Biodistribution in blood of Kunming mouse at 1 uCi, iv after 30 mins by gamma counting; type: ADME, organism-based; conditions: in vivo, 0.5 h
Kidney [17] = test: Biodistribution in kidney of Kunming mouse at 1 uCi, iv after 60 mins by gamma counting; type: ADME, organism-based; conditions: in vivo, 1 h
Lung [18] = test: Biodistribution in lung of Kunming mouse at 1 uCi, iv after 120 mins by gamma counting; type: ADME, organism-based; conditions: in vivo, 2 h
Spleen [19] = test: Biodistribution in spleen of Kunming mouse at 1 uCi, iv after 240 mins by gamma counting; type: ADME, organism-based; conditions: in vivo, 4 h
Stomach [20] = test: Biodistribution in stomach of Kunming mouse at 1 uCi, iv after 2 mins by gamma counting measured per organ; type: ADME, organism-based; conditions: in vivo
Lung [21] = test: Biodistribution in lung of Kunming mouse at 1 uCi, iv after 60 mins by gamma counting; type: ADME, organism-based; conditions: in vivo, 1 h
Spleen [22] = test: Biodistribution in spleen of Kunming mouse at 1 uCi, iv after 2 mins by gamma counting; type: ADME, organism-based; conditions: in vivo
Heart [23] = test: Biodistribution in heart of Kunming mouse at 1 uCi, iv after 120 mins by gamma counting; type: ADME, organism-based; conditions: in vivo, 2 h
Brain [24] = test: Biodistribution in brain of Kunming mouse at 1 uCi, iv after 30 mins by gamma counting; type: ADME, organism-based; conditions: in vivo, 0.5 h
Spleen [25] = test: Biodistribution in spleen of Kunming mouse at 1 uCi, iv after 60 mins by gamma counting; type: ADME, organism-based; conditions: in vivo, 1 h
Brain [26] = test: Biodistribution in brain of Kunming mouse at 1 uCi, iv after 60 mins by gamma counting; type: ADME, organism-based; conditions: in vivo, 1 h
Muscle tissue [27] = test: Biodistribution in muscle of Kunming mouse at 1 uCi, iv after 30 mins by gamma counting; type: ADME, organism-based; conditions: in vivo, 0.5 h
Stomach [28] = test: Biodistribution in stomach of Kunming mouse at 1 uCi, iv after 30 mins by gamma counting measured per organ; type: ADME, organism-based; conditions: in vivo, 0.5 h
Liver [29] = test: Biodistribution in liver of Kunming mouse at 1 uCi, iv after 30 mins by gamma counting; type: ADME, organism-based; conditions: in vivo, 0.5 h
Liver [30] = test: Biodistribution in liver of Kunming mouse at 1 uCi, iv after 60 mins by gamma counting; type: ADME, organism-based; conditions: in vivo, 1 h
Muscle tissue [31] = test: Biodistribution in muscle of Kunming mouse at 1 uCi, iv after 2 mins by gamma counting; type: ADME, organism-based; conditions: in vivo
Heart [32] = test: Biodistribution in heart of Kunming mouse at 1 uCi, iv after 60 mins by gamma counting; type: ADME, organism-based; conditions: in vivo, 1 h
Kidney [33] = test: Biodistribution in kidney of Kunming mouse at 1 uCi, iv after 120 mins by gamma counting; type: ADME, organism-based; conditions: in vivo, 2 h
Spleen [34] = test: Biodistribution in spleen of Kunming mouse at 1 uCi, iv after 30 mins by gamma counting; type: ADME, organism-based; conditions: in vivo, 0.5 h
Lung [35] = test: Biodistribution in lung of Kunming mouse at 1 uCi, iv after 2 mins by gamma counting; type: ADME, organism-based; conditions: in vivo
Heart [36] = test: Biodistribution in heart of Kunming mouse at 1 uCi, iv after 30 mins by gamma counting; type: ADME, organism-based; conditions: in vivo, 0.5 h
Liver [37] = test: Biodistribution in liver of Kunming mouse at 1 uCi, iv after 240 mins by gamma counting; type: ADME, organism-based; conditions: in vivo, 4 h
Kidney [38] = test: Biodistribution in kidney of Kunming mouse at 1 uCi, iv after 2 mins by gamma counting; type: ADME, organism-based; conditions: in vivo
Blood [39] = test: Biodistribution in blood of Kunming mouse at 1 uCi, iv after 240 mins by gamma counting; type: ADME, organism-based; conditions: in vivo, 4 h
Kidney [40] = test: Biodistribution in kidney of Kunming mouse at 1 uCi, iv after 30 mins by gamma counting; type: ADME, organism-based; conditions: in vivo, 0.5 h
Heart [41] = test: Biodistribution in heart of Kunming mouse at 1 uCi, iv after 240 mins by gamma counting; type: ADME, organism-based; conditions: in vivo, 4 h
Blood [42] = test: Biodistribution in blood of Kunming mouse at 1 uCi, iv after 120 mins by gamma counting; type: ADME, organism-based; conditions: in vivo, 2 h
Muscle tissue [43] = test: Biodistribution in muscle of Kunming mouse at 1 uCi, iv after 120 mins by gamma counting; type: ADME, organism-based; conditions: in vivo, 2 h
Liver [44] = test: Biodistribution in liver of Kunming mouse at 1 uCi, iv after 120 mins by gamma counting; type: ADME, organism-based; conditions: in vivo, 2 h
Stomach [45] = test: Biodistribution in stomach of Kunming mouse at 1 uCi, iv after 60 mins by gamma counting measured per organ; type: ADME, organism-based; conditions: in vivo, 1 h
Brain [46] = test: Biodistribution in brain of Kunming mouse at 1 uCi, iv after 120 mins by gamma counting; type: ADME, organism-based; conditions: in vivo, 2 h
Stomach [47] = test: Biodistribution in stomach of Kunming mouse at 1 uCi, iv after 240 mins by gamma counting measured per organ; type: ADME, organism-based; conditions: in vivo, 4 h
Brain [48] = test: Biodistribution in brain of Kunming mouse at 1 uCi, iv after 240 mins by gamma counting; type: ADME, organism-based; conditions: in vivo, 4 h
Liver [49] = test: Biodistribution in liver of Kunming mouse at 1 uCi, iv after 2 mins by gamma counting; type: ADME, organism-based; conditions: in vivo
Blood [50] = test: Biodistribution in blood of Kunming mouse at 1 uCi, iv after 60 mins by gamma counting; type: ADME, organism-based; conditions: in vivo, 1 h
Lung [51] = test: Biodistribution in lung of Kunming mouse at 1 uCi, iv after 30 mins by gamma counting; type: ADME, organism-based; conditions: in vivo, 0.5 h

Structure (SMILES): CN(C)c1ccc(-c2nc3ccc([125I])cc3s2)cc1
- Ki [1]: 130 pM
- Ki [2]: 90 pM

Structure (SMILES): N#CC(C#N)=Cc1ccc(-c2ccc(-c3ccc(O)cc3)s2)s1
- Ki [3]: 10000 pM

Structure (SMILES): CNc1ccc(-c2nc3ccc(O)cc3s2)cc1 [PITTSBURGH COMPOUND B UNLABELLED]
- Ki [4]: 770 pM

Structure (SMILES): CN(C)c1ccc(-c2nc3ccc(I)cc3s2)cc1
- Ki [4]: 2200 pM
- Ki [5]: 900 pM

Structure (SMILES): [125I]c1ccc2nc(-c3ccc(-c4cccs4)s3)sc2c1
- Drug uptake (Heart [6]): 4.39 % ID/g
- Drug uptake (Brain [7]): 3.42 % ID/g
- logD [8]: 3.65
- Drug uptake (Muscle tissue [9]): 0.87 % ID/g
- Drug uptake (Spleen [10]): 3.5 % ID/g
- Drug uptake (Muscle tissue [11]): 1.47 % ID/g
- Drug uptake (Lung [12]): 3.72 % ID/g
- Drug uptake (Stomach [13]): 4.39 %ID
- Drug uptake (Kidney [14]): 5.76 % ID/g
- Drug uptake (Blood [15]): 9.02 % ID/g
- Drug uptake (Blood [16]): 2.12 % ID/g
- Drug uptake (Kidney [17]): 8.52 % ID/g
- Drug uptake (Lung [18]): 5.76 % ID/g
- Drug uptake (Spleen [19]): 2.07 % ID/g
- Drug uptake (Stomach [20]): 0.39 %ID
- Drug uptake (Lung [21]): 8.01 % ID/g
- Drug uptake (Spleen [22]): 12.75 % ID/g
- Drug uptake (Heart [23]): 1.5 % ID/g
- Drug uptake (Brain [24]): 1.08 % ID/g
- Drug uptake (Spleen [25]): 8.61 % ID/g
- Drug uptake (Brain [26]): 0.53 % ID/g
- Drug uptake (Muscle tissue [27]): 1.01 % ID/g
- Drug uptake (Stomach [28]): 2.47 %ID
- Drug uptake (Liver [29]): 39.81 % ID/g
- Drug uptake (Liver [30]): 29.12 % ID/g
- Drug uptake (Muscle tissue [31]): 0.65 % ID/g
- Drug uptake (Heart [32]): 2.65 % ID/g
- Drug uptake (Kidney [33]): 7.33 % ID/g
- Drug uptake (Spleen [34]): 6.78 % ID/g
- Drug uptake (Lung [35]): 17.51 % ID/g
- Drug uptake (Heart [36]): 2.49 % ID/g
- Drug uptake (Liver [37]): 13.82 % ID/g
- Drug uptake (Kidney [38]): 4 % ID/g
- Drug uptake (Blood [39]): 1.36 % ID/g
- Drug uptake (Kidney [40]): 7.22 % ID/g
- Drug uptake (Heart [41]): 1.31 % ID/g
- Drug uptake (Blood [42]): 1.76 % ID/g
- Drug uptake (Muscle tissue [43]): 1.23 % ID/g
- Drug uptake (Liver [44]): 22.47 % ID/g
- Drug uptake (Stomach [45]): 4.05 %ID
- Drug uptake (Brain [46]): 0.51 % ID/g
- Drug uptake (Stomach [47]): 3.24 %ID
- Drug uptake (Brain [48]): 0.5 % ID/g
- Drug uptake (Liver [49]): 53.64 % ID/g
- Drug uptake (Blood [50]): 1.96 % ID/g
- Drug uptake (Lung [51]): 8.04 % ID/g
